The values below come from PMC9779571, “Guanidine Derivatives Containing the Chalcone Skeleton Are Potent Antiproliferative Compounds against Human Leukemia Cells” (International Journal of Molecular Sciences, 2022).

Common to all, as to type: cell-based
In one test the test system is U-937 cells. The test is described as follows: MTT cytotoxicity assay, U-937. The settings on record: Homo sapiens, U-937, 72 h, means ± SEM. The text has this: (§1) U-937, HL-60, MOLT-3, NALM-6, and SK-MEL-1 cells were from DSMZ (German Collection of Microorganisms and Cell Cultures, Braunschweig, Germany). U-937/Bcl-2 cells were kindly provided by Dr. Jacqueline Bréard (INSERM U749, Faculté de Pharmacie Paris-Sud, Châtenay-Malabry, France). The U-937 is a pro-monocytic, human promyelocytic leukemia cell line that was isolated from a histiocytic lymphoma. HL-60 is a human acute myeloid leukemia cell line. MOLT-3 is a human acute lymphoblastic leukemia cell line. NALM-6 is a human B cell precursor leukemia. SK-MEL-1 is a human melanoma cell line growing singly or in clumps (occasional giant, polynucleated cell) in suspension. Cells were cultured in RPMI 1640 medium containing 10% (v/v) heat-inactivated fetal bovine serum, 100 μg/mL streptomycin, and 100 U/mL penicillin, incubated at 37 °C in a humidified atmosphere containing 5% CO2 as described. The doubling times of the cell lines were 24 h in HL-60, 30 h in U-937, U-937/Bcl-2, 40 h in MOLT-3 and NALM-6, and several days in SK-MEL-1 cells. Human peripheral blood mononuclear cells (PBMC) were isolated from heparin-anticoagulated blood of healthy volunteers by centrifugation with Ficoll-Paque Plus (GE Healthcare Bio-Sciences AB, Uppsala, Sweden). PBMC were also stimulated with phytohemagglutinin (2 µg/mL) for 48 h before the experimental treatment. The trypan blue exclusion method was used for counting the cells by a hemocytometer with 95% viability in all the experiments. Compounds were dissolved in dimethyl sulfoxide (DMSO) and kept under dark conditions at 25 °C. […] The cytotoxicity of the synthetic compounds was evaluated by colorimetric 3-(4,5-dimethyl-2-thiazolyl-)-2,5-diphenyl-2H-tetrazolium bromide (MTT) assay as previously described. Briefly, cells (5000 per well) were incubated with increasing concentrations of compounds for 72 h into a 96-well plate. Then, the supernatants were removed and 0.5 mg/mL MTT was added and incubated for 4 h at 37 °C. Sodium dodecyl sulfate (10% w/v) in 0.05 M HCl was added to solubilize the reaction products and the absorbance was measured at 570 nm with a reference wavelength of […] using an ELISA reader (Bio-Rad, Hercules, CA, USA). The IC50 values (concentrations inducing a 50% inhibition of cell viability) were determined graphically for each experiment by a nonlinear regression using the curve fitting routine implemented within the software Prism 5.0 (GraphPad, La Jolla, CA, USA).
A general note: Tetrazolium assays rely on reduction of a dye to a coloured formazan, in cell work by metabolically active cells.

In the next test the test system is HL-60 cells. Description: MTT cytotoxicity assay, HL-60. The settings on record: Homo sapiens, HL-60, 72 h, means ± SEM.
Text: as §1

Test [1] concerns six human cancer cell lines. The test is described as follows: MTT cytotoxicity assay, all cell lines assayed (summary statements). The settings on record: Homo sapiens; range over the six cell lines, 72 h. The source says: U-937, HL-60, MOLT-3, NALM-6, and SK-MEL-1 cells were from DSMZ (German Collection of Microorganisms and Cell Cultures, Braunschweig, Germany). U-937/Bcl-2 cells were kindly provided by Dr. Jacqueline Bréard (INSERM U749, Faculté de Pharmacie Paris-Sud, Châtenay-Malabry, France). The U-937 is a pro-monocytic, human promyelocytic leukemia cell line that was isolated from a histiocytic lymphoma. HL-60 is a human acute myeloid leukemia cell line. MOLT-3 is a human acute lymphoblastic leukemia cell line. NALM-6 is a human B cell precursor leukemia. SK-MEL-1 is a human melanoma cell line growing singly or in clumps (occasional giant, polynucleated cell) in suspension. Cells were cultured in RPMI 1640 medium containing 10% (v/v) heat-inactivated fetal bovine serum, 100 μg/mL streptomycin, and 100 U/mL penicillin, incubated at 37 °C in a humidified atmosphere containing 5% CO2 as described. […] The cytotoxicity of the synthetic compounds was evaluated by colorimetric 3-(4,5-dimethyl-2-thiazolyl-)-2,5-diphenyl-2H-tetrazolium bromide (MTT) assay as previously described. […] Sodium dodecyl sulfate (10% w/v) in 0.05 M HCl was added to solubilize the reaction products and the absorbance was measured at 570 nm with a reference wavelength of […] using an ELISA reader (Bio-Rad, Hercules, CA, USA). […]

A word on the IC50: it is the concentration needed to halve the response being measured. Low readings indicate higher potency, high ones lower potency.

In the case of `Cc1ccc(S(=O)(=O)NC(=Nc2ccc(/C=C/C(=O)c3c(O)cccc3OCc3ccccc3)cc2)N2CCN(C)CC2)cc1` [Compound 6f], the figures for the IC50 (in the test on U-937 cells; in the test with HL-60 cells; in test [1]) were 1600 ± 600 nM, 1600 ± 1000 nM and 1500 to 4500 nM, respectively.
